Measured values reported in US20240241113A1, “Method for detecting binding to an ADP-ribosyl group or a polymer thereof and a kit for performing said method” (priority 2021, published 2024).

Assays:
[1] = target: T1, SARS-CoV-2 nsp3 macrodomain (Severe acute respiratory syndrome coronavirus 2, UniProt P0DTD1); test: FRET-based binding assay, CFP-SARS-CoV-2 nsp3 macrodomain with MARylated YFP-Gαi
Experimental: (§1) The experiments were carried out in assay buffer (10 mM Bis-Tris-Propane pH 7.0, 3% (w/v) PEG20,000, 0.01% (v/v) Triton X-100 and 0.5 mM TCEP) in 10 μl volume per well unless stated otherwise.
For the screening, 40 nl of 10 mM compound stocks dissolved in DMSO from the FDA-approved drug library (Enzo Life Sciences) were transferred to 384-well black low-volume polypropylene plates (Fisherbrand). The sample mixture containing 1 μM CFP-SARS-CoV-2 nsp3 macrodomain and 5 μM MARylated YFP-Gαi was prepared in assay buffer (10 mM Bis-Tris-Propane pH 7.0, 3% (w/v) PEG20,000, 0.01% (v/v) Triton X-100 and 0.5 mM TCEP) and 20 μl per well were dispensed using Mantis (Formulatrix). The rFRET signal was determined after 5 minute incubation time.

[2] = target: T1, SARS-CoV-2 nsp3 macrodomain; test: Validation of suramin binding by DSF; conditions: 5 μM macrodomain without tags, suramin 10 μM, 50 μM, 100 μM or 1 mM
Experimental: The SARS-CoV-2 nsp3 macrodomain without tags was diluted to 5 μM in 10 mM HEPES pH 7.5, 25 mM NaCl, 0.5 mM TCEP buffer and mixed with 5×SYPRO Orange. Samples were prepared with 10 μM, 50 μM, 100 μM or 1 mM of suramin. […] Samples were transferred to 96-well qPCR plates. Measurement was performed in a BioRad C1000 CFX96 thermal cycler. Data points for melting curves were recorded in 1 min intervals from 20-95° C., with the temperature increasing by 1° C./min. The analysis of the data was done in GraphPad Prism 7 using a nonlinear regression analysis (Boltzmann sigmoid equation) of normalized data.

[3] = tested on: viral and human ADP-ribose readers and erasers; test: FRET inhibition profile against ADP-ribosyl binders with YFP-GAP(MAR) or YFP-GAP(PAR); format: binding; conditions: 10 μM suramin; many of the proteins tested; ratiometric FRET
Experimental: as §1

SARS-CoV2 = conditions: cell-culture based models; reported; cited from earlier work
CFP-ALC1 (human) = CFP-ALC1 (human) (UniProt Q86WJ1); test: FRET competition: 250 nM CFP-ALC1 + 500 nM YFP-GAP(PAR), PARylated PARP2 varied; displaced ligand YFP-GAP(PAR) [e]
CFP-ALC1 (human), sequence (Q86WJ1 616-878 limits assumed): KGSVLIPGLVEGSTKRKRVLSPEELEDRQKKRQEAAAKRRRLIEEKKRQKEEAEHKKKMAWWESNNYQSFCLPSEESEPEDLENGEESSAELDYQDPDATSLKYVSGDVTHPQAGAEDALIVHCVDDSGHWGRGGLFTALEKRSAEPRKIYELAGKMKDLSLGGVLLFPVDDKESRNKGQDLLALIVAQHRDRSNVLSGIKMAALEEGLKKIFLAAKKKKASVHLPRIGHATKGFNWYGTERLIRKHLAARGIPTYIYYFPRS

Row | Molecule | inhibition at 20 µM ([1]; 20 μM compound, 1 μM CFP-SARS-CoV-2 nsp3 macrodomain, 5 μM MARylated YFP-Gαi, rFRET, read-out: inhibition in screen of ENZO FDA-approved drug library) | IC50 ([1]; FRET-based assay, dose-response curve, read-out: IC50 against the SARS-CoV-2 nsp3 macrodomain) | stabilization of the protein by DSF [2] | stabilization of the protein by DSF ([2]; listed as Suramin) | inhibition of viral and human ADP-ribose readers and erasers [3] | inhibition of SARS-CoV2 infection (SARS-CoV2) | IC50 (read off the curve) (CFP-ALC1 (human))
1 | Cc1ccc(C(=O)Nc2ccc(S(=O)(=O)O)c3cc(S(=O)(=O)O)cc(S(=O)(=O)O)c23)cc1NC(=O)c1cccc(NC(=O)Nc2cccc(C(=O)Nc3cc(C(=O)Nc4ccc(S(=O)(=O)O)c5cc(S(=O)(=O)O)cc(S(=O)(=O)O)c45)ccc3C)c2)c1 [suramin] | 82% | 8.7 µM | stabilization of the protein in a concentration dependent manner | stabilization | strong inhibition | inhibit | –
2 | PARylated PARP2 (from UniProt Q9UGN5 90-583) (enzyme) | – | – | – | – | – | – | 0.03 µM
